# In the oligonucleotide strings, read from the 5' end, every base follows the letter of its sugar. An asterisk marks phosphorothioate; unmarked linkages are phosphodiester. Other units and linkages are bracketed, terminal groups are in braces. A string of capitals states the bases alone. d = 2'-deoxy (DNA)
# Legend:
# MYCN gene = test: QT-PCR, MYCN mRNA in RH30 cells; format: cell-based, human
# Method: For the purpose of assessing the ability of the oligonucleotides of the present invention to modulate the expression of the target genes, their ability to reduce the quantity of messenger RNA was analyzed using the Real-Time PCR technique. For this purpose, use was made of 24-well plates, which were seeded with 5.0×10^4 cells with 0.3 ml of OPTI-MEM (GIBCO BRL) medium, 4% FBS and 2 mM L-glutammine (experiments in triplicate) per well. The cells were incubated for 24 hours at 37° C., in an atmosphere containing 5% CO2 to permit adherence to the base of the wells. Each oligonucleotide analyzed, except for the PNA oligonucleotides, was incubated beforehand with 2 μl of Lipofectamine 2000 (Invitrogen), with 0.3 mL of serum-free OPTI-MEM (GIBCO BRL) medium. For each well, the oligonucleotides were analyzed at the following final concentrations: • the antisense oligonucleotides siRNA and siRNA gapmer (i.e. the oligonucleotides containing one or more monomers of chemically modified nucleic acids at the 3' or 5' end, while in the central portion they have monomers of nucleic acids that have not been modified or have been modified at the level of the phosphodiester bond as a phosphorothioate bond) were used at 200 nM; • the antisense oligonucleotides containing phosphorothioate DNA monomers, the RNA antigene oligonucleotides (agRNA) and the oligonucleotides containing DNA monomers and LNA monomers were used at 10 μM; • the morpholino oligonucleotides were used at a concentration of 1 μM, and • the PNA oligonucleotides were administered at a concentration of 1 μM. The cells were treated with the oligonucleotides, adding FBS up to 4% 6 hours after administration of the same. After 24 hours the total RNA was extracted from each well and purified using the RNeasy Mini Kit (QIAGEN). Assays were performed on 8 cell lines obtained from 5 different human tumours which are correlated with MYCN expression, i.e.: • as a neuroblastoma model use was made of the cell lines Kelly, IMR-32 (where the MYCN gene is amplified and superexpressed) and SKNBE2c and LAN1 (where the MYCN gene is amplified and superexpressed and the p53 gene is mutated); • as a rabdomiosarcoma model use was made of the cell line RH30, where the MYCN gene is amplified and superexpressed; • as a Wilms' tumour model use was made of the cell line WiT49, where the MYCN gene is amplified and superexpressed; • as a retinoblastoma model use was made of the cell line Y79, where the MYCN gene is amplified and superexpressed; and • as a model of small cell lung cancer use was made of the cell line H69 where the MYCN gene is amplified and superexpressed. As a control, use was made of the same cell lines as listed above treated with sterile water instead of oligonucleotides. Each RNA sample was quantified (in duplicate) using a NanoDrop ND-1000 spectrophotometer (NanoDrop Technologies). The first strand of cDNA was produced using the cDNA Synthesis Kit for RT-PCR (Roche). For the cDNA synthesis reaction a total of 1 μg of RNA was used. For the real-time PCR, 10 ng of cDNA in a final volume of 20 μl was used with SYBR Green Master Mix 2× (Applied Biosystems) (3 identical experiments were conducted in triplicate). Two housekeeping genes were used as positive controls: GAPDH and beta-actin (ACTB). The conditions of the QT-PCR reaction were: 10 min at 95° C., 20 sec at 95° C., and 30 sec at 60° C., for 50 cycles. The PNAs having SEQ ID NO: 1-12 were also tested on different cell lines which overexpress MYCN (Kelly, SKNBE2c, RH30, […] 1 and H69). The results are shown in Table 6 and confirm the selectivity and specificity of the inhibition effect of the PNAs on the product of protein translation of the MYCN gene. Chimeric oligonucleotides comprising DNA monomers and LNA monomers and having the MYCN gene as their target were tested in vitro on alveolar rabdomyosarcoma cells (RH30). […]
# [1] = test system: rabdomyosarcoma cells (RH30); test: Cellular proliferation assay (ATP-Lite), RH30 cells; format: cell-based, human
# Method: For the purpose of assessing the gene modulation ability of the oligonucleotides of the present invention, the effect of their administration on cell viability was determined. For this purpose 5×10^3 cells per well were seeded into 96-well cell culture plates (experiments conducted in triplicate) with 100 μl of OPTI-MEM (GIBCO BRL) medium containing 4% FBS and 2 mM of L-glutammine. The PNA oligonucleotides were administered at different concentrations (1 μM-2.5 μM-5 μM-10 μM) in order to observe a dose-effect relationship. As regards all the other oligonucleotides, the concentrations at which they administered are listed in the paragraph: The viability of the treated cells was determined at 48, 72, 96 and 168 hours after treatment. Cell viability was assessed by means of an ATP-Lite assay (Luminescence ATP Detection Assay System, PerkinElmer) and is reported as the ratio between the average signal of the treated wells compared to the average value of the wells of untreated control cells. The cells were processed following the instructions provided with the kit. The assays were performed on the same cell lines used to determine the levels of the MYCN gene messenger and listed in the paragraph: Treatments with Oligonucleotides-QT-PCR. The PNAs having SEQ ID NO: 1-12 were also tested on different cell lines which overexpress MYCN (Kelly, SKNBE2c, RH30, […] 1 and H69). The results are shown in Table 6 and confirm the selectivity and specificity of the inhibition effect of the PNAs on the product of protein translation of the MYCN gene. Chimeric oligonucleotides comprising DNA monomers and LNA monomers and having the MYCN gene as their target were tested in vitro on alveolar rabdomyosarcoma cells (RH30). […] The antisense oligonucleotides designed and synthesized by the Applicant according to the parameters described in the present invention were analyzed in vitro on rabdomyosarcoma cells (RH30).
# [2] = Table 9, siRNA and siRNA gapmer used at 200 nM with Lipofectamine 2000
# [3] = Table 9, siRNA and siRNA gapmer used at 200 nM
# [4] = Table 9, phosphorothioate DNA antisense used at 10 μM with Lipofectamine 2000
# [5] = Table 9, phosphorothioate DNA antisense used at 10 μM
Substance,mRNA inhibition (%) (MYCN gene; [2]),"Cell Prolif. (%) [1, 3] [%]",mRNA inhibition (%) (MYCN gene; [4]),"Cell Prolif. (%) [1, 5] [%]"
"SEQ ID NO: 27: double-stranded siRNA against MYCN, sense GAUGAUGAAGAGGAAGAUG, antisense SEQ ID NO: 58 (antisense CAUCUUCCUCUUCAUCAUC; listed as RNA, chemistry not given here)",70,43,,
"SEQ ID NO: 28: double-stranded siRNA against MYCN, sense UGAUGAAGAGGAAGAUGAA, antisense SEQ ID NO: 59 (antisense UUCAUCUUCCUCUUCAUCA; listed as RNA, chemistry not given here)",78,35,,
"SEQ ID NO: 29: double-stranded siRNA against MYCN, sense GAGGAAGAUGAAGAGGAAG, antisense SEQ ID NO: 60 (antisense CUUCCUCUUCAUCUUCCUC; listed as RNA, chemistry not given here)",85,28,,
"SEQ ID NO: 30: double-stranded siRNA against MYCN, sense GGAAGAUGAAGAGGAAGAA, antisense SEQ ID NO: 61 (antisense UUCUUCCUCUUCAUCUUCC; listed as RNA, chemistry not given here)",81,30,,
SEQ ID NO: 31: phosphorothioate DNA antisense oligonucleotide CGTGGAGCAGCTCGGCAT against MYCN (antisense dC*dG*dT*dG*dG*dA*dG*dC*dA*dG*dC*dT*dC*dG*dG*dC*dA*dT),,,34,73
SEQ ID NO: 32: phosphorothioate DNA antisense oligonucleotide CAGGGTGTCCTCTCCGGA against MYCN (antisense dC*dA*dG*dG*dG*dT*dG*dT*dC*dC*dT*dC*dT*dC*dC*dG*dG*dA),,,45,65
"SEQ ID NO: 33: double-stranded chimeric RNA / 2′O-Methyl siRNA against MYCN, sense GAGGAAGAUGAAGAGGAAGTT, antisense SEQ ID NO: 62 (antisense CUUCCUCUUCAUCUUCCUCTT; RNA with some 2'-O-methyl monomers, positions not given here)",13,85,,
"SEQ ID NO: 34: double-stranded chimeric RNA / 2′-Fluoro siRNA against MYCN, sense CAGGAAGAUGAAGAGGAAGUU, antisense SEQ ID NO: 63 (antisense GUUCCUCUUCAUCUUCCUCUU; RNA with some 2'-fluoro monomers, positions not given here)",59,52,,
"SEQ ID NO: 35: double-stranded chimeric RNA / LNA siRNA against MYCN, sense GAGGAAGAUGAAGAGGAAGTT, antisense SEQ ID NO: 64 (antisense CUUCCUCUUCAUCUUCCUCTT; RNA with some LNA monomers, positions not given here)",34,68,,
"SEQ ID NO: 36: double-stranded chimeric RNA / arabinoside RNA siRNA against MYCN, sense CAGGAAGAUGAAGAGGAAGAA, antisense SEQ ID NO: 65 (antisense GUUCCUCUUCAUCUUCCUCAA; arabinoside modifications, further chemistry not given here)",69,35,,
